Values after ≈ are worked out from the molar mass of the structure shown. Like-named read-outs stand apart in the source and are kept apart here.
Experiments:
Format in all cases: cell-based, human
SMMC-7721 = experiment: MTT survival assay, liver cancer cell line (SMMC-7721); settings: SMMC-7721 Experiment #2; for IC50: Homo sapiens
Method: (§1) The effect of the above identified compounds on anti-tumor activity in human carcinoma cells was determined by the MTT survival assay. The MTT assay is a commonly used method in evaluation of cell survival, based on the ability of viable cells to convert MTT (MTT, Sigma, Cat No. 044K5307), a soluble tetrazolium salt [3-(4,5-dimethylthuazole-2-yl)-2,5 diphenyl tetrazolium bromide], into an insoluble formazan precipitate, which is quantitated by spectrophotometry following solubilization in dimethyl sulfoxide (DMSO).
(§2) In brief, different carcinoma cells were treated with negative control, various test articles at different concentration, and positive control (DDP), in 96-well tissue culture dishes. Each test article at different concentration is repeated 3 times.
(§3) Different carcinoma cells were diluted with 10% FBS and RPM1640 or MEM media to a concentration of 3-5×10^4 per ml suspension. 100 microliter of cells were incubated in each well in 96-well tissue culture dishes at 37 C. The cells were incubated at 37 C on the first day. On the second day, media supernatant was removed and replaced with media and different concentration of test articles (100 microliter in each well). Three Negative control wells and three positive control (DDP) wells were also included. The 96-well plate were incubated at 37 C for another 68 hours. After 68 hours, supernatant of each well was removed. 100 microliter of 1 mg/ml MTT diluted in PBS was injected into each well. The cells were incubated at 37 C for another 4 hours. The cells were then solubilized in 150 microliter DMSO, mixed for 10 minutes and absorbance readings were taken using Microplate reader Bio-Rad Model 550 at 570 nm. IR (cell growth inhibition rate) % was calculated as (OD570 of negative control-OD570 with test article)/OD570 of negative control. IC50 (cell 50% inhibition concentration) at 95% confidence level was calculated with Bliss method.

A459 = experiment: MTT survival assay, lung cancer cell line (A459); settings: A459 Experiment #2; for IC50: Homo sapiens
Method: as §1, §2, §3

U251 = experiment: MTT survival assay, glioma cell line (brain tumor U251); settings: U251 (second table)
Method: as §1, §2, §3

SKOV3 = experiment: MTT survival assay, ovarian cancer cell line (SKOV3); settings: SKOV3 (second table)
Method: as §1, §2, §3

Hela cells = experiment: MTT survival assay, cervical cancer line (Hela cells); settings: for IC50: Homo sapiens
Method: as §1, §2, §3

MCF-7 = experiment: MTT survival assay, breast cancer cell line (MCF-7); settings: for IC50: Homo sapiens
Method: as §1, §2, §3

[1] = 95% confidence limits of IC50, read-out: IC50 (95% confidence level), interval
[2] = Bliss method, unit not printed (concentrations in μg/ml), read-out: IC50 (95% confidence level)

SMILES: Cc1ccc(S(=O)(=O)NCC(=O)NCC(c2ccccc2)c2c[nH]c3ccccc23)cc1 (centres unmarked) [Mol 640]
- IC50 (SMMC-7721; [1]): 7.68 to 8.36 µg/mL (≈ 17.2 to 18.7 µM)
- IC50 (SMMC-7721; [2]): 8.02 µg/mL (≈ 17.9 µM)
- IR (%) (SMMC-7721; 3.125 μg/ml): 53.4%
- OD(A570 nm) (SMMC-7721; 3.125 μg/ml): 0.215 ± 0.008
- IR (%) (SMMC-7721; 6.25 μg/ml): 39.8%
- OD(A570 nm) (SMMC-7721; 6.25 μg/ml): 0.278 ± 0.013
- IR (%) (SMMC-7721; 12.5 μg/ml): 41.9%
- OD(A570 nm) (SMMC-7721; 12.5 μg/ml): 0.268 ± 0.013
- IR (%) (SMMC-7721; 25 μg/ml): 56.6%
- OD(A570 nm) (SMMC-7721; 25 μg/ml): 0.200 ± 0.002
- IR (%) (SMMC-7721; 50 μg/ml): 80.2%
- OD(A570 nm) (SMMC-7721; 50 μg/ml): 0.091 ± 0.002
- IR (%) (SMMC-7721; 100 μg/ml): 78.7%
- OD(A570 nm) (SMMC-7721; 100 μg/ml): 0.098 ± 0.014
- IR (%) (A459; 3.125 μg/ml): −22.6%
- OD(A570 nm) (A459; 3.125 μg/ml): 0.781 ± 0.040
- IR (%) (A459; 6.25 μg/ml): −12.5%
- OD(A570 nm) (A459; 6.25 μg/ml): 0.717 ± 0.020
- IR (%) (A459; 12.5 μg/ml): 6.9%
- OD(A570 nm) (A459; 12.5 μg/ml): 0.593 ± 0.034
- IR (%) (A459; 25 μg/ml): 63.6%
- OD(A570 nm) (A459; 25 μg/ml): 0.232 ± 0.006
- IR (%) (A459; 50 μg/ml): 87.2%
- OD(A570 nm) (A459; 50 μg/ml): 0.081 ± 0.010
- IR (%) (A459; 100 μg/ml): 87.1%
- OD(A570 nm) (A459; 100 μg/ml): 0.082 ± 0.014
- IC50 (A459; [1]): 25.5 to 26.1 µg/mL (≈ 57 to 58.4 µM)
- IC50 (A459; [2]): 25.8 µg/mL (≈ 57.7 µM)
- IC50 (U251; Homo sapiens, U-251, Bliss method, unit not printed (concentrations in μg/ml), read-out: IC50 (95% confidence level)): 11.7 µg/mL (≈ 26 µM)
- IR (%) (U251; 3.125 μg/ml): 9.2%
- OD(A570 nm) (U251; 3.125 μg/ml): 0.796 ± 0.055
- IR (%) (U251; 6.25 μg/ml): 20.6%
- OD(A570 nm) (U251; 6.25 μg/ml): 0.696 ± 0.054
- IR (%) (U251; 12.5 μg/ml): 59.6%
- OD(A570 nm) (U251; 12.5 μg/ml): 0.354 ± 0.021
- IR (%) (U251; 25 μg/ml): 90.3%
- OD(A570 nm) (U251; 25 μg/ml): 0.085 ± 0.012
- IR (%) (U251; 50 μg/ml): 90.1%
- OD(A570 nm) (U251; 50 μg/ml): 0.087 ± 0.012
- IR (%) (U251; 100 μg/ml): 89.7%
- OD(A570 nm) (U251; 100 μg/ml): 0.090 ± 0.014
- IC50 (SKOV3; Homo sapiens, SK-OV-3, Bliss method, unit not printed (concentrations in μg/ml), read-out: IC50 (95% confidence level)): 26.9 µg/mL (≈ 60 µM)
- IR (%) (SKOV3; 3.125 μg/ml): 0%
- OD(A570 nm) (SKOV3; 3.125 μg/ml): 0.716 ± 0.048
- IR (%) (SKOV3; 6.25 μg/ml): 10.3%
- OD(A570 nm) (SKOV3; 6.25 μg/ml): 0.628 ± 0.025
- IR (%) (SKOV3; 12.5 μg/ml): 9.7%
- OD(A570 nm) (SKOV3; 12.5 μg/ml): 0.632 ± 0.020
- IR (%) (SKOV3; 25 μg/ml): 43.8%
- OD(A570 nm) (SKOV3; 25 μg/ml): 0.394 ± 0.037
- IR (%) (SKOV3; 50 μg/ml): 88.3%
- OD(A570 nm) (SKOV3; 50 μg/ml): 0.082 ± 0.008
- IR (%) (SKOV3; 100 μg/ml): 88.7%
- OD(A570 nm) (SKOV3; 100 μg/ml): 0.079 ± 0.010
- IR (%) (Hela cells; 0.41 μg/ml): 12.3%
- OD(A570 nm) (Hela cells; 0.41 μg/ml): 0.651 ± 0.044
- OD(A570 nm) (Hela cells; 1.23 μg/ml): 0.826 ± 0.101
- OD(A570 nm) (Hela cells; 3.70 μg/ml): 0.819 ± 0.085
- IR (%) (Hela cells; 11.11 μg/ml): 12.2%
- OD(A570 nm) (Hela cells; 11.11 μg/ml): 0.652 ± 0.057
- IR (%) (Hela cells; 33.33 μg/ml): 76.8%
- OD(A570 nm) (Hela cells; 33.33 μg/ml): 0.172 ± 0.010
- IR (%) (Hela cells; 100 μg/ml): 89.5%
- OD(A570 nm) (Hela cells; 100 μg/ml): 0.078 ± 0.023
- IC50 (Hela cells; [1]): 21.9 to 29.1 µg/mL (≈ 49 to 65.1 µM)
- IC50 (Hela cells; [2]): 25.3 µg/mL (≈ 56.4 µM)
- IR (%) (MCF-7; 3.125 μg/ml): 10.5%
- OD(A570 nm) (MCF-7; 3.125 μg/ml): 0.807 ± 0.016
- IR (%) (MCF-7; 6.25 μg/ml): 21.5%
- OD(A570 nm) (MCF-7; 6.25 μg/ml): 0.708 ± 0.058
- IR (%) (MCF-7; 12.5 μg/ml): 28.1%
- OD(A570 nm) (MCF-7; 12.5 μg/ml): 0.649 ± 0.036
- IR (%) (MCF-7; 25 μg/ml): 89.6%
- OD(A570 nm) (MCF-7; 25 μg/ml): 0.094 ± 0.012
- IR (%) (MCF-7; 50 μg/ml): 89.1%
- OD(A570 nm) (MCF-7; 50 μg/ml): 0.098 ± 0.012
- IR (%) (MCF-7; 100 μg/ml): 92.3%
- OD(A570 nm) (MCF-7; 100 μg/ml): 0.069 ± 0.007
- IC50 (MCF-7; MCF7, 95% confidence limits of IC50, read-out: IC50 (95% confidence level), interval): 12.3 to 16.1 µg/mL (≈ 27.6 to 36 µM)
- IC50 (MCF-7; MCF7, Bliss method, unit not printed (concentrations in μg/ml), read-out: IC50 (95% confidence level)): 14.1 µg/mL (≈ 31.5 µM)
